Earlier results as cited in patent US20100221818A1, “Device for the extemporaneous preparation of active preparations” (ALAXIA, priority 2009, published 2010).

Conditions: in the absence of peroxidase and/or of hydrogen peroxide

half-life: approximately 24 hours
Structure (SMILES): N#CSO [hypothiocyanite]
